Laboratory results taken from paper PMC11048482 (Biomolecules, 2024).
Where two headings read alike, the source gives them in different places.

Biological target: T1, SP_0166 (Streptococcus pneumoniae, UniProt A0A0H2UNA7)
T1 construct: full length, 368 residues, 42,757 Da; pET-28a(+) BamHI/XhoI, C-terminal 6xHis tag kept; expressed in E. coli BL21(DE3)
Assay: LC-MS/MS of agmatine formed from arginine
Format: biochemical

T1 sequence (A0A0H2UNA7 entry or part of it): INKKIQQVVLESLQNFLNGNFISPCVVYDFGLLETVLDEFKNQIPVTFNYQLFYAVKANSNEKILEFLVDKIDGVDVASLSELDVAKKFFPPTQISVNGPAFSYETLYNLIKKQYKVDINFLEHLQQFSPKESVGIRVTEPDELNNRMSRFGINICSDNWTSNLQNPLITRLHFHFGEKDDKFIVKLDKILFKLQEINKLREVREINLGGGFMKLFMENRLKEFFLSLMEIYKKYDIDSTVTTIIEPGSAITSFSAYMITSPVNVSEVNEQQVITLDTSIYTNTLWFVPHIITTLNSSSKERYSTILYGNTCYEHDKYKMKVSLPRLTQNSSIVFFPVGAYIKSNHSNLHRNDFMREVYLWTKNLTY

Structure (SMILES)	IC50 (read-out: DFMA IC50)	IC50 (read-out: DFMO IC50)
N=C(N)NCCCC(N)(C(=O)O)C(F)F (centres unmarked) [DFMA]	0.0216 ± 0.0104 mM	–
NCCCC(N)(C(=O)O)C(F)F (centres unmarked) [DFMO]	–	27 ± 4.5 mM
